Experimental data as given in patent US20220033623A1, “CONJUGATES OF HYALURONIC ACID AND AMINOBISPHOSPHONATES AND THE THERAPEUTIC USE THEREOF” (FIDIA FARMACEUTICI S.P.A., priority 2018, published 2022).
Where two headings read alike, the source gives them in different places.

How the values were obtained:
Saos-2 osteoblasts = conditions: for cell viability: 3 days of incubation, % of that of the control, FIG. 4A
Method: The cells were then seeded at the concentration of 1×10^4 cells/well in 96-well Multiwell plates (Sarstedt, cat. no. 83,3924, Germany) and divided into three groups:
(§1) 1) a control group, wherein the cells were neither treated nor stimulated;
(§2) Each sample was tested in four replications.

[1] = Rheological properties: viscoelastic moduli (frequency sweep) after adding CaCl2; format: physicochemical; conditions: 20 mg/mL in 0.1 M TRIS pH 7, alendronate 2.4 mg/mL, CaCl2 2 mg/mL, 20° C, 0.1-100 rad/s; FIG. 2
[2] = tested on: primary bovine chondrocytes; conditions: for cytotoxic effect: 7 days
Method: The ability of the conjugate to release alendronate in a controlled way and also to have an effect on cartilage tissue was evaluated by in vitro testing on primary bovine chondrocytes.
as §1, §2

What does the source list for `NCCCC(O)(P(=O)(O)O)P(=O)(O)O` [alendronate]?
cell viability (Saos-2 osteoblasts; Saos-2, 50 μM): < 70%; cell viability (Saos-2 osteoblasts; Saos-2, 100 μM): < 70%; cytotoxicity as a function of incubation period (Saos-2 osteoblasts; Saos-2, 3 versus 7 days): increases significantly in proportion to the incubation period; viscoelastic moduli G′ (elastic) and G″ (viscous), comparison in words [1]: no effect on rheological behaviour; onset of the effect on the cells [2]: acts on the primary bovine chondrocytes after only 72 hours of incubation; cytotoxic effect ([2]; 50 μM): maximum cytotoxic effect; cytotoxic effect ([2]; 100 μM): maximum cytotoxic effect
